Results taken from ChEMBL document CHEMBL1201862, “PubChem BioAssay data set” (2004).
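Where inhibition never reached the appropriate level, the endpoint shown equals the highest concentration tested. Otherwise, values were interpolated linearly from a five-concentration, 48-hour dose response in 96-well plates. GI50 = concentration required for 50% inhibition of growth.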 Calls of active or inactive are those of the source. Cut-off read from the data, not from the text of the source: active = GI50 up to about 1.1 µM and inactive = higher.

What was measured:
Test in all cases: NCI anticancer screen, dose series, 48 h
A498 = test system: A498
786-0 = test system: 786-0
DU-145 = test system: DU-145
EKVX = test system: EKVX
NCI-H23 = test system: NCI-H23
SF-295 = test system: SF-295
HCT-15 = test system: HCT-15
T47D = test system: T47D
SW-620 = test system: SW-620
MOLT-4 = test system: MOLT-4
NCI-H522 = test system: NCI-H522
SR = test system: SR
UO-31 = test system: UO-31
SN12C = test system: SN12C
Malme-3M = test system: Malme-3M
UACC-62 = test system: UACC-62
TK-10 = test system: TK-10
KM12 = test system: KM12
RPMI-8226 = test system: RPMI-8226
SF-268 = test system: SF-268

## CC[C@@H](C)[C@H]([C@H](CC(=O)N1CCC[C@@H]1[C@@H](OC)[C@H](C)C(=O)N[C@H](Cc1ccccc1)c1nccs1)OC)N(C)C(=O)[C@H](NC(=O)[C@@H](C(C)C)N(C)C)C(C)C
A498
  GI50: 0.000228 µM (active)
786-0
  GI50: 0.000184 µM (active)
DU-145
  GI50: < 0.01 µM (active)
EKVX
  GI50: 0.000277 µM (active)
NCI-H23
  GI50: 0.000224 µM (active)
SF-295
  GI50: 0.000146 µM (active)
HCT-15
  GI50: 0.000366 µM
T47D
  GI50: > 77.6 µM (inactive)
SW-620
  GI50: 9.12e-05 µM (active)
MOLT-4
  GI50: 0.000229 µM (active)
NCI-H522
  GI50: < 0.01 µM (active)
SR
  GI50: 2.75e-05 µM (active)
UO-31
  GI50: 0.00206 µM (active)
SN12C
  GI50: 0.000486 µM (active)
Malme-3M
  GI50: 0.000624 µM (active)
UACC-62
  GI50: 0.000175 µM (active)
TK-10
  GI50: 0.00181 µM (active)
KM12
  GI50: 1.67e-05 µM (active)
RPMI-8226
  GI50: 0.000143 µM (active)
SF-268
  GI50: 0.00039 µM (active)

## Cc1ccc(/C=C2\CN(C)CC3C2=NC(=S)NC3c2ccc(C)cc2)cc1 (stereo not given)
A498
  GI50: > 86.7 µM (inactive)
786-0
  GI50: 86.3 µM (inactive)
DU-145
  GI50: > 85.7 µM (inactive)
EKVX
  GI50: 9.93 µM (inactive)
NCI-H23
  GI50: > 74 µM (inactive)
SF-295
  GI50: 61.8 µM (inactive)
HCT-15
  GI50: 36 µM
T47D
  GI50: 26 µM (inactive)
SW-620
  GI50: > 88.7 µM (inactive)
MOLT-4
  GI50: 14.6 µM (inactive)
NCI-H522
  GI50: 24 µM (inactive)
SR
  GI50: 29.9 µM (inactive)
UO-31
  GI50: 43.2 µM (inactive)
SN12C
  GI50: 52.1 µM (inactive)
Malme-3M
  GI50: 92.7 µM (inactive)
UACC-62
  GI50: > 100 µM (inactive)
TK-10
  GI50: > 76.4 µM (inactive)
KM12
  GI50: 32.1 µM (inactive)
RPMI-8226
  GI50: 46.5 µM (inactive)
SF-268
  GI50: > 74.3 µM (inactive)

## CC1CN1C(=O)NCCCCCCNC(=O)N1CC1C (stereo not given)
A498
  GI50: > 100 µM (inactive)
786-0
  GI50: 51.6 µM (inactive)
DU-145
  GI50: 22.2 µM (inactive)
EKVX
  GI50: > 100 µM (inactive)
NCI-H23
  GI50: 27.3 µM (inactive)
SF-295
  GI50: 54.3 µM (inactive)
HCT-15
  GI50: > 100 µM
T47D
  GI50: > 73.1 µM (inactive)
SW-620
  GI50: > 100 µM (inactive)
MOLT-4
  GI50: 15.5 µM (inactive)
NCI-H522
  GI50: > 100 µM (inactive)
SR
  GI50: 3.11 µM (inactive)
UO-31
  GI50: 79.4 µM (inactive)
SN12C
  GI50: 61.8 µM (inactive)
Malme-3M
  GI50: > 100 µM (inactive)
UACC-62
  GI50: 31.8 µM (inactive)
TK-10
  GI50: > 100 µM (inactive)
KM12
  GI50: > 100 µM (inactive)
RPMI-8226
  GI50: > 100 µM (inactive)
SF-268
  GI50: 29.8 µM (inactive)

## CCN(C(=O)N[C@@H](C)C(=O)N[C@@H](Cc1ccccc1)C(=O)OC)c1ccccc1
A498
  GI50: > 100 µM (inactive)
786-0
  GI50: 39 µM (inactive)
DU-145
  GI50: 46 µM (inactive)
EKVX
  GI50: > 100 µM (inactive)
NCI-H23
  GI50: > 100 µM (inactive)
SF-295
  GI50: 79.6 µM (inactive)
HCT-15
  GI50: 70.8 µM
T47D
  GI50: 56.8 µM (inactive)
SW-620
  GI50: > 100 µM (inactive)
MOLT-4
  GI50: > 100 µM (inactive)
NCI-H522
  GI50: 71.6 µM (inactive)
SR
  GI50: 26 µM (inactive)
UO-31
  GI50: 31.7 µM (inactive)
SN12C
  GI50: 23 µM (inactive)
Malme-3M
  GI50: 34.4 µM (inactive)
UACC-62
  GI50: 31.6 µM (inactive)
TK-10
  GI50: > 100 µM (inactive)
KM12
  GI50: > 100 µM (inactive)
RPMI-8226
  GI50: 38.5 µM (inactive)
SF-268
  GI50: > 100 µM (inactive)

## COc1ccc2c3c([nH]c2c1)[C@H]1C[C@H]2[C@H](C[C@@H](O)[C@H](OC)[C@H]2C(=O)O)CN1CC3
A498
  GI50: > 100 µM (inactive)
786-0
  GI50: > 100 µM (inactive)
DU-145
  GI50: > 100 µM (inactive)
EKVX
  GI50: > 100 µM (inactive)
NCI-H23
  GI50: > 100 µM (inactive)
SF-295
  GI50: > 100 µM (inactive)
HCT-15
  GI50: > 100 µM
T47D
  GI50: > 100 µM (inactive)
SW-620
  GI50: > 100 µM (inactive)
MOLT-4
  GI50: > 100 µM (inactive)
NCI-H522
  GI50: > 100 µM (inactive)
SR
  GI50: > 100 µM (inactive)
UO-31
  GI50: > 100 µM (inactive)
SN12C
  GI50: > 100 µM (inactive)
Malme-3M
  GI50: > 100 µM (inactive)
UACC-62
  GI50: > 100 µM (inactive)
TK-10
  GI50: > 100 µM (inactive)
KM12
  GI50: > 100 µM (inactive)
RPMI-8226
  GI50: > 100 µM (inactive)
SF-268
  GI50: > 100 µM (inactive)
